Key:
Assay type in all cases: in vivo
Settings in all cases: wettable powder applied 3 days after transplanting, judged after 25 days
[1] = test system: annual broad-leaved weeds (Lindernia spp., Rotala indica); assay: Test Example 1: herbicidal effects, paddy-field pot test
In short: (§1)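 Herbicidal effect and crop injury were rated 0 (0-10% inhibition) to 5 (91-100%) 25 days after treatment. Water-diluted wettable powder was applied to flooded greenhouse pots 3 days after transplanting 2.2-leaf rice. The pots held seeded weeds and sprouted Cyperus serotinus tubers.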

Cyperus serotinus = assay: as above
In short: as §1

[2] = test system: barnyardgrass (Echinochloa oryzicola Vasing.); assay: as above
In short: as §1

Scirpus joncoides = assay: as above
In short: as §1

[3] = test system: transplanted paddy-field rice; assay: Test Example 1: crop injury against transplanted paddy-field rice
In short: as §1

SMILES	Herbicidal effects Broad leaf ([1]; chemical dosage 10 g/a)	Herbicidal effects Broad leaf ([1]; chemical dosage 20 g/a)	Herbicidal effects Cyperus serotinus (Cyperus serotinus; chemical dosage 10 g/a)	Herbicidal effects Cyperus serotinus (Cyperus serotinus; chemical dosage 20 g/a)	Herbicidal effects Barnyard grass ([2]; chemical dosage 10 g/a)	Herbicidal effects Barnyard grass ([2]; chemical dosage 20 g/a)	Herbicidal effects Scirpus joncoides (Scirpus joncoides; chemical dosage 10 g/a)	Herbicidal effects Scirpus joncoides (Scirpus joncoides; chemical dosage 20 g/a)	Crop injury against transplanted rice ([3]; chemical dosage 10 g/a)	Crop injury against transplanted rice ([3]; chemical dosage 20 g/a)	Herbicidal effects Broad leaf ([1]; chemical dosage 12.5 g/a)	Herbicidal effects Broad leaf ([1]; chemical dosage 25 g/a)	Herbicidal effects Cyperus serotinus (Cyperus serotinus; chemical dosage 12.5 g/a)	Herbicidal effects Cyperus serotinus (Cyperus serotinus; chemical dosage 25 g/a)	Herbicidal effects Barnyard grass ([2]; chemical dosage 12.5 g/a)	Herbicidal effects Barnyard grass ([2]; chemical dosage 25 g/a)	Herbicidal effects Scirpus joncoides (Scirpus joncoides; chemical dosage 12.5 g/a)	Herbicidal effects Scirpus joncoides (Scirpus joncoides; chemical dosage 25 g/a)	Crop injury against transplanted rice ([3]; chemical dosage 12.5 g/a)	Crop injury against transplanted rice ([3]; chemical dosage 25 g/a)
Cc1cc(C)c(Br)c(Oc2nnc(Cl)cc2O)c1 [Example 285]	5 (Growth inhibition rate; 91 to 100%)	5 (Growth inhibition rate; 91 to 100%)	2 (Growth inhibition rate; 31 to 50%)	3 (Growth inhibition rate; 51 to 70%)	0 (Growth inhibition rate; 0 to 10%)	0 (Growth inhibition rate; 0 to 10%)	4 (Growth inhibition rate; 71 to 90%)	5 (Growth inhibition rate; 91 to 100%)	0 (Growth inhibition rate; 0 to 10%)	0 (Growth inhibition rate; 0 to 10%)										
Cc1cc(C)c(C)c(Oc2nnc(Cl)cc2O)c1 [Example 286]											5 (Growth inhibition rate; 91 to 100%)	5 (Growth inhibition rate; 91 to 100%)	5 (Growth inhibition rate; 91 to 100%)	5 (Growth inhibition rate; 91 to 100%)	0 (Growth inhibition rate; 0 to 10%)	0 (Growth inhibition rate; 0 to 10%)	5 (Growth inhibition rate; 91 to 100%)	5 (Growth inhibition rate; 91 to 100%)	0 (Growth inhibition rate; 0 to 10%)	0 (Growth inhibition rate; 0 to 10%)
CCCc1c(C)cc(C)cc1Oc1nnc(Cl)cc1O [Example 287]											5 (Growth inhibition rate; 91 to 100%)	5 (Growth inhibition rate; 91 to 100%)	1 (Growth inhibition rate; 11 to 30%)	3 (Growth inhibition rate; 51 to 70%)	0 (Growth inhibition rate; 0 to 10%)	0 (Growth inhibition rate; 0 to 10%)	5 (Growth inhibition rate; 91 to 100%)	5 (Growth inhibition rate; 91 to 100%)	0 (Growth inhibition rate; 0 to 10%)	0 (Growth inhibition rate; 0 to 10%)
CSc1c(C)cc(C)cc1Oc1nnc(Cl)cc1O [Example 289]											4 (Growth inhibition rate; 71 to 90%)	5 (Growth inhibition rate; 91 to 100%)	4 (Growth inhibition rate; 71 to 90%)	5 (Growth inhibition rate; 91 to 100%)	0 (Growth inhibition rate; 0 to 10%)	0 (Growth inhibition rate; 0 to 10%)	4 (Growth inhibition rate; 71 to 90%)	5 (Growth inhibition rate; 91 to 100%)	0 (Growth inhibition rate; 0 to 10%)	0 (Growth inhibition rate; 0 to 10%)
Cc1ccc(C)c(Oc2nnc(Cl)cc2O)c1Br [Example 290]	5 (Growth inhibition rate; 91 to 100%)		5 (Growth inhibition rate; 91 to 100%)		0 (Growth inhibition rate; 0 to 10%)		4 (Growth inhibition rate; 71 to 90%)		0 (Growth inhibition rate; 0 to 10%)											
Cc1ccc(Br)c(Oc2nnc(Cl)cc2O)c1C [Example 294]	5 (Growth inhibition rate; 91 to 100%)	5 (Growth inhibition rate; 91 to 100%)	5 (Growth inhibition rate; 91 to 100%)	5 (Growth inhibition rate; 91 to 100%)	1 (Growth inhibition rate; 11 to 30%)	2 (Growth inhibition rate; 31 to 50%)	5 (Growth inhibition rate; 91 to 100%)	5 (Growth inhibition rate; 91 to 100%)	0 (Growth inhibition rate; 0 to 10%)	0 (Growth inhibition rate; 0 to 10%)										
Cc1ccc(C)c(Oc2nnc(Cl)cc2O)c1C [Example 295]											5 (Growth inhibition rate; 91 to 100%)	5 (Growth inhibition rate; 91 to 100%)	5 (Growth inhibition rate; 91 to 100%)	5 (Growth inhibition rate; 91 to 100%)	0 (Growth inhibition rate; 0 to 10%)	1 (Growth inhibition rate; 11 to 30%)	5 (Growth inhibition rate; 91 to 100%)	5 (Growth inhibition rate; 91 to 100%)	0 (Growth inhibition rate; 0 to 10%)	0 (Growth inhibition rate; 0 to 10%)
Cc1ccc(C2CC2)c(Oc2nnc(Cl)cc2O)c1C [Example 296]	5 (Growth inhibition rate; 91 to 100%)	5 (Growth inhibition rate; 91 to 100%)	5 (Growth inhibition rate; 91 to 100%)	5 (Growth inhibition rate; 91 to 100%)	1 (Growth inhibition rate; 11 to 30%)	2 (Growth inhibition rate; 31 to 50%)	5 (Growth inhibition rate; 91 to 100%)	5 (Growth inhibition rate; 91 to 100%)	0 (Growth inhibition rate; 0 to 10%)	0 (Growth inhibition rate; 0 to 10%)										
CSCc1c(C)ccc(C)c1Oc1nnc(Cl)cc1O [Example 303]											3 (Growth inhibition rate; 51 to 70%)	4 (Growth inhibition rate; 71 to 90%)	5 (Growth inhibition rate; 91 to 100%)	5 (Growth inhibition rate; 91 to 100%)	0 (Growth inhibition rate; 0 to 10%)	1 (Growth inhibition rate; 11 to 30%)	3 (Growth inhibition rate; 51 to 70%)	4 (Growth inhibition rate; 71 to 90%)	0 (Growth inhibition rate; 0 to 10%)	0 (Growth inhibition rate; 0 to 10%)
Oc1cc(Cl)nnc1Oc1c(Br)ccc2c1CCC2 [Example 304]	5 (Growth inhibition rate; 91 to 100%)	5 (Growth inhibition rate; 91 to 100%)	4 (Growth inhibition rate; 71 to 90%)	5 (Growth inhibition rate; 91 to 100%)	4 (Growth inhibition rate; 71 to 90%)	4 (Growth inhibition rate; 71 to 90%)	4 (Growth inhibition rate; 71 to 90%)	5 (Growth inhibition rate; 91 to 100%)	0 (Growth inhibition rate; 0 to 10%)	0 (Growth inhibition rate; 0 to 10%)										

— US7964531B2, “3-phenoxy-4-pyridazinol derivatives and herbicidal composition containing the same” (Mitsui Chemicals Agro, Inc., priority 2001, dated 2011)
